Results: patent publication US9403800B2, “Compounds for inhibition of cancer cell proliferation” (ChemRegen, Inc., priority 2012, dated 2016)

How the values were obtained:
[1] = test system: Wnt transcriptional activity; assay: cell-based Wnt-luciferase reporter assay (SuperTOPFlash); conditions: for inhibition of Wnt transcriptional activity (in words): Wnt-luciferase reporter; for Relative potency for Wnt inhibition: relative to IWR-1, transfected HEK293A cells treated 12 hours, normalized to Renilla
Source text: “Hit” 1 (FIG. 1) was identified as a Wnt inhibitor in a high-throughput screen of a library of 74,000 compounds using a cell-based Wnt-luciferase reporter assay as a readout of Wnt transcriptional activity. […] Wnt transcriptional activity was monitored in HEK-293T cells using a luciferase-based Wnt reporter (SuperTOPFlash) stimulated by Wnt3a conditioned media.
Medicinal chemical refinement of “hit” 1 was undertaken to improve its potency, maintain non-toxicity, increase water solubility and improve bioavailability. The SAR refinement of functional activity of “hit” 1 on the inhibition of the Wnt pathway was determined using a cell-based Wnt-luciferase reporter assay (described above). with Renilla Luciferase was used as a normalization for transfection efficiency. 6-8 hours after transfection, transfected HEK293A cells were treated with 1 and each analog for 12 hours. Both firefly and renilla luciferase activities were measured using a plate reader. A library of compounds was tested to obtain an SAR for 1. Compound 1 and its analogs are synthesized by a two step synthesis, Scheme 1.
Signaling was tested using a standard luciferase response system for canonical Wnt/β-catenin/TCF signaling. Briefly, we used a cell line that had been transfected with a luciferase reporter gene under the control of the response element of a transcription factor that is activated by association with β-catenin and is the target of canonical Wnt signaling.

[2] = chemical stability by HPLC; format: physicochemical; conditions: determined by HPLC
Source text: As observed from the data presented in Table 1, both free bases and salts gave significant Wnt inhibition potency. On the basis of the lipophilic character of many of the analogs, it is likely interaction site on the molecular target has a lipophilic character although polar interactions are apparent. To increase solubility, were possible, hydrochloride salts of the sulfonamides were synthesized. To afford appropriate bioavailability, sulfonamides were synthesized with chemical and metabolic stability in mind.

[3] = pharmacokinetics in rats; conditions: rat, in vivo
[4] = test system: canonical Wnt target genes, Cyclin D1 (CCND1), Axin2 (AXIN2), and c-Myc (c-MYC); assay: mRNA levels of canonical Wnt target genes in HEK293T and SW480 cells; format: cell-based; conditions: HEK293T and SW480 colorectal cells
[5] = test system: SW480 colorectal cancer model cell line; assay: SW480 cell proliferation and cell cycle (InCell 1000); format: cell-based, human
Source text: Previous studies have shown that the Wnt signaling pathway drives cellular proliferation of a number of cancers through up-regulation of genes for several proteins crucial for cell division including Cyclin D1, c-Myc, etc. and treatment of cancer cells with 1 or analogs decreases cellular proliferation. Accordingly, we examined the effect of 1 and analogs on cell proliferation of human cancer cell lines. […] The results were confirmed by studying the effects of 1 on SW480 human colon cell cycle determined by cell images captured by InCell 1000.

Question: With `O=C1CCCN1c1ccc(S(=O)(=O)N2CCCC3CCCCC32)cc1` (stereo not shown) [Compound 3, 1-(4-(octahydroquinolin-1(2H)-ylsulfonyl)phenyl)pyrrolidin-2-one] as the compound, how does the “inhibition of Wnt transcriptional activity (in words)” value [1] read?
Answer: potent inhibition of Wnt

Question: For `O=C1CCCN1c1ccc(S(=O)(=O)N2CCCc3cc(Cl)ccc32)cc1` [Compound 5, 1-(4-(6-chloro-3,4-dihydroquinolin-1(2H)-ylsulfonyl)phenyl)pyrrolidin-2-one], which “Relative potency for Wnt inhibition” value [1] is on record?
Answer: ++++ (between 60 to 80% potency compared to IWR-1)

Question: What does the source list for `O=C1CCCN1c1ccc(S(=O)(=O)N2CCCc3cc(F)ccc32)cc1` [Compound 6, 1-(4-(6-fluoro-3,4-dihydroquinolin-1(2H)-ylsulfonyl)phenyl)pyrrolidin-2-one]?
Answer: Relative potency for Wnt inhibition [1]: +++ (between 40 to 60% potency compared to IWR-1); chemical half life [2]: No change

Question: With `COc1ccc2c(c1)CCCN2S(=O)(=O)c1ccc(N2CCCC2=O)cc1` [Compound 7, 1-(4-(6-methoxy-3,4-dihydroquinolin-1(2H)-ylsulfonyl)phenyl)pyrrolidin-2-one] as the compound, how does the “Relative potency for Wnt inhibition” value [1] read?
Answer: ++++ (between 60 to 80% potency compared to IWR-1)

Question: What about the half-life [2] of the same compound?
Answer: 37 h

Question: For `O=C1CCCN1c1ccc(S(=O)(=O)N2CCCc3cc(C(F)(F)F)ccc32)cc1` [Compound 8, 1-(4-(6-(trifluoromethyl)-3,4-dihydroquinolin-1(2H)-ylsulfonyl)phenyl)-pyrrolidin-2-one], which “Relative potency for Wnt inhibition” value [1] is on record?
Answer: +++ (between 40 to 60% potency compared to IWR-1)

Question: For `CC(C)(C)c1ccc2c(c1)CCCN2S(=O)(=O)c1ccc(N2CCCC2=O)cc1` [Compound 9, 1-(4-(6-tert-butyl-3,4-dihydroquinolin-1(2H)-ylsulfonyl)phenyl)pyrrolidin-2-one], which “Relative potency for Wnt inhibition” value [1] is on record?
Answer: + (<20% potency compared to compound IWR-1)

Question: For `Cc1ccc2c(c1)N(S(=O)(=O)c1ccc(N3CCCC3=O)cc1)CCC2` [Compound 11, 1-(4-(7-methyl-3,4-dihydroquinolin-1(2H)-ylsulfonyl)phenyl)pyrrolidin-2-one], which “Relative potency for Wnt inhibition” value [1] is on record?
Answer: ++++ (between 60 to 80% potency compared to IWR-1)

Question: Which “Relative potency for Wnt inhibition” value [1] does the source give for `O=C1CCCN1c1ccc(S(=O)(=O)N2CCc3ccccc3C2)cc1` [Compound 12, 1-(4-(3,4-dihydroisoquinolin-2(1H)-ylsulfonyl)phenyl)pyrrolidin-2-one] here?
Answer: ++++ (between 60 to 80% potency compared to IWR-1)

Question: Which “Relative potency for Wnt inhibition” value [1] does the source give for `Cc1ccc2c(c1)CCN(S(=O)(=O)c1ccc(N3CCCC3=O)cc1)C2` [Compound 13, 1-(4-(6-methyl-3,4-dihydroisoquinolin-2(1H)-ylsulfonyl)phenyl)pyrrolidin-2-one] here?
Answer: + (<20% potency compared to compound IWR-1)

Question: With `Cc1ccc2c(c1)CN(S(=O)(=O)c1ccc(N3CCCC3=O)cc1)CC2` [Compound 14, 1-(4-(7-methyl-3,4-dihydroisoquinolin-2(1H)-ylsulfonyl)phenyl)pyrrolidin-2-one] as the compound, how does the “Relative potency for Wnt inhibition” value [1] read?
Answer: +++ (between 40 to 60% potency compared to IWR-1)

Question: For `O=C1CCCN1c1ccc(S(=O)(=O)Nc2ccccc2)cc1` [Compound 17, 4-(2-oxopyrrolidin-1-yl)-N-phenylbenzenesulfonamide], which “Relative potency for Wnt inhibition” value [1] is on record?
Answer: + (<20% potency compared to compound IWR-1)

Question: For `COc1ccccc1NS(=O)(=O)c1ccc(N2CCCC2=O)cc1` [Compound 18, N-(2-methoxyphenyl)-4-(2-oxopyrrolidin-1-yl)benzenesulfonamide], which “Relative potency for Wnt inhibition” value [1] is on record?
Answer: + (<20% potency compared to compound IWR-1)

Question: For `O=C1CCCN1c1ccc(S(=O)(=O)Nc2ccccc2OC(F)(F)F)cc1` [Compound 19, 4-(2-oxopyrrolidin-1-yl)-N-(2-(trifluoromethoxy)phenyl)benzenesulfonamide], which “Relative potency for Wnt inhibition” value [1] is on record?
Answer: + (<20% potency compared to compound IWR-1)

Question: For `O=C1CCCN1c1ccc(S(=O)(=O)Nc2cccc3ccccc23)cc1` [Compound 20, N-(naphthalen-1-yl)-4-(2-oxopyrrolidin-1-yl)benzenesulfonamide], which “Relative potency for Wnt inhibition” value [1] is on record?
Answer: + (<20% potency compared to compound IWR-1)

Question: Which “Relative potency for Wnt inhibition” value [1] does the source give for `O=C1CCCN1c1ccc(S(=O)(=O)N2CCCCC2)cc1` [Compound 21, 1-(4-(piperidin-1-ylsulfonyl)phenyl)pyrrolidin-2-one] here?
Answer: + (<20% potency compared to compound IWR-1)

Question: With `CCC1CCCCN1S(=O)(=O)c1ccc(N2CCCC2=O)cc1` (stereo not shown) [Compound 22, 1-(4-(2-ethylpiperidin-1-ylsulfonyl)phenyl)pyrrolidin-2-one] as the compound, how does the “Relative potency for Wnt inhibition” value [1] read?
Answer: + (<20% potency compared to compound IWR-1)

Question: Which “Relative potency for Wnt inhibition” value [1] does the source give for `CCCN(c1ccccc1)S(=O)(=O)c1ccc(N2CCCC2=O)cc1` [Compound 23, 4-(2-oxopyrrolidin-1-yl)-N-phenyl-N-propylbenzenesulfonamide] here?
Answer: + (<20% potency compared to compound IWR-1)

Question: For `CCCCN(c1ccccc1)S(=O)(=O)c1ccc(N2CCCC2=O)cc1` [Compound 24, N-butyl-4-(2-oxopyrrolidin-1-yl)-N-phenylbenzenesulfonamide], which “Relative potency for Wnt inhibition” value [1] is on record?
Answer: + (<20% potency compared to compound IWR-1)

Question: Which “inhibition of Wnt transcriptional activity (in words)” value [1] does the source give for `O=C1CCCCN1c1ccc(S(=O)(=O)N2CCCc3ccccc32)cc1` [Compound 25, 1-(4-(3,4-dihydroquinolin-1(2H)-ylsulfonyl)phenyl)piperidin-2-one] here?
Answer: did not inhibit Wnt transcriptional activity

Question: And the “Relative potency for Wnt inhibition” value [1]?
Answer: + (<20% potency compared to compound IWR-1)

Question: For `CC(=O)N(C)c1ccc(S(=O)(=O)N2CCCc3ccccc32)cc1` [Compound 26, N-(4-(3,4-dihydroquinolin-1(2H)-ylsulfonyl)phenyl)-N-methylacetamide], which “Relative potency for Wnt inhibition” value [1] is on record?
Answer: + (<20% potency compared to compound IWR-1)

Question: For `COC1CCN(c2ccc(S(=O)(=O)N3CCN(C)c4ccccc43)cc2)C1=O` (stereo not shown) [Compound 27, 3-methoxy-1-(4-(4-methyl-3,4-dihydroquinoxalin-1(2H)-ylsulfonyl)phenyl)-pyrrolidin-2-one], which “Relative potency for Wnt inhibition” value [1] is on record?
Answer: + (<20% potency compared to compound IWR-1)

Question: With `CN1CCN(S(=O)(=O)c2ccc(N3CCC(O)C3=O)cc2)c2ccccc21` (stereo not shown) [Compound 28, 3-hydroxy-1-(4-(4-methyl-3,4-dihydroquinoxalin-1(2H)-ylsulfonyl)phenyl)-pyrrolidin-2-one] as the compound, how does the “Relative potency for Wnt inhibition” value [1] read?
Answer: +++ (between 40 to 60% potency compared to IWR-1)

Question: Which results are given for `CN1CCN(S(=O)(=O)c2ccc(N3CCCC3)cc2)c2ccccc21` [Compound 31, 1-methyl-4-(4-(pyrrolidin-1-yl)phenylsulfonyl)-1,2,3,4-tetrahydroquinoxaline]?
Answer: Relative potency for Wnt inhibition [1]: ++++ (between 60 to 80% potency compared to IWR-1); bioavailability [3]: 11%

Question: Which “Relative potency for Wnt inhibition” value [1] does the source give for `CN1CCN(S(=O)(=O)c2ccc(N3CCC=N3)cc2)c2ccccc21` [Compound 32, 1-(4-(4,5-dihydro-1H-pyrazol-1-yl)phenylsulfonyl)-4-methyl-1,2,3,4-tetrahydroquinoxaline] here?
Answer: ++++ (between 60 to 80% potency compared to IWR-1)

Question: With `CN1CCN(S(=O)(=O)c2ccc(-n3cccn3)cc2)c2ccccc21` [Compound 33, 1-(4-(1H-pyrazol-1-yl)phenylsulfonyl)-4-methyl-1,2,3,4-tetrahydroquinoxaline] as the compound, how does the “Relative potency for Wnt inhibition” value [1] read?
Answer: + (<20% potency compared to compound IWR-1)

Question: For `CN1CCN(S(=O)(=O)c2ccc(N3CCC(O)C3)cc2)c2ccccc21` (stereo not shown) [Compound 34, 1-(4-(4-methyl-3,4-dihydroquinoxalin-1(2H)-ylsulfonyl)phenyl)pyrrolidin-3-ol], which “Relative potency for Wnt inhibition” value [1] is on record?
Answer: +++ (between 40 to 60% potency compared to IWR-1)

Question: For `CC(=O)c1ccc(NN=C(C(N)=O)C2=NC(C)(C)Cc3ccccc32)cc1` [IQ-1], which “mRNA levels of canonical Wnt target genes CCND1, AXIN2, c-MYC” value [4] is on record?
Answer: enhanced mRNA expression

Question: Which “mRNA levels of canonical Wnt target genes CCND1, AXIN2, c-MYC” value [4] does the source give for `O=C(Nc1cccc2cccnc12)c1ccc(N2C(=O)[C@@H]3[C@H](C2=O)[C@@H]2C=C[C@H]3C2)cc1` [IWR-1, reference compound] here?
Answer: decreased mRNA expression

Question: What about the cell cycle distribution ([5]; SW480 cells, InCell 1000 images) of the same compound?
Answer: did not alter either the rate of SW480 cell proliferation or cell cycle

Question: And the “cancer cell proliferation (in words)” value ([5]; SW480 colon cancer cell line)?
Answer: did not alter either the rate of SW480 cell proliferation or cell cycle
